According to US20090105292A9, “Glucocorticoid Receptor Modulator Compounds and Methods” (LIGAND PHARMACEUTICALS INCORPORATED, priority 2004, published 2009):

system: not given; experiment: not given; conditions: not given

`COc1c(O)ccc2c1-c1ccc3c(c1/C(=C/c1sccc1C(C)=O)O2)C(C)=CC(C)(C)N3` showed a melting point of 222 to 224 °C.

target: T1, human glucocorticoid receptor protein (GR) (Homo sapiens, UniProt P04150); experiment: Glucocorticoid receptor binding assay ([3H]dexamethasone competition, GR lysate); conditions: not given
T1 construct: made in house; host or cells: Spodoptera frugiperda Sf21 insect cells (baculovirus)
T1 sequence (P04150 1-777): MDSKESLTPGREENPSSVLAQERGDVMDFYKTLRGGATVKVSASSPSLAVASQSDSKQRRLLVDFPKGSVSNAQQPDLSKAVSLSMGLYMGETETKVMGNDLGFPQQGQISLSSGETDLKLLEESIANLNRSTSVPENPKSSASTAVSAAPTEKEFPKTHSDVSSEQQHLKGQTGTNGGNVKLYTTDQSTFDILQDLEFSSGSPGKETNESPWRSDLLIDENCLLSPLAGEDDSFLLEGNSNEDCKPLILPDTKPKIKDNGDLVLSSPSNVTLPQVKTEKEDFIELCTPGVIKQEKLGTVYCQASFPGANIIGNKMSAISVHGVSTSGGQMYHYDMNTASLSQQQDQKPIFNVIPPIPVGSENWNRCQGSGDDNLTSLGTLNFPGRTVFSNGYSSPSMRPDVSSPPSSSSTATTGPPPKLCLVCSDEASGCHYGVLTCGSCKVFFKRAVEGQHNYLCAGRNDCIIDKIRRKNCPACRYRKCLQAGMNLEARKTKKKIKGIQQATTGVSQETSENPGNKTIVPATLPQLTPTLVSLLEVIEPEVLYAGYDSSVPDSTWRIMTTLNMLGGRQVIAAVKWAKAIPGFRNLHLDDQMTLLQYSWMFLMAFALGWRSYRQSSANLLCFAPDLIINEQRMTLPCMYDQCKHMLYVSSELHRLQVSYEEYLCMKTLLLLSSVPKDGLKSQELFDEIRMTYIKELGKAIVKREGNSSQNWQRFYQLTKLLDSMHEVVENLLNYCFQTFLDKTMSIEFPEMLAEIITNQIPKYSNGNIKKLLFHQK
Method: A baculovirus expression plasmid containing cDNA encoding the human glucocorticoid receptor protein (GR) was prepared using standard techniques. […] That expression plasmid was co-transfected together with wild type Autographa californica multiple nuclear polyhedrosis virus DNA into Spodopter frugiperda-21 (Sf-21) cells to generate recombinant virus containing GR cDNA. See e.g., O'Reilly, D. R., Miller, L. K., Luckow, V. A., Regulation of expression of a baculovirus ecdysteroid UDP glucosyltransferase gene. […] That recombinant virus containing GR cDNA was collected.
A suspension culture of uninfected Sf21 cells was grown to a density of 1.2×10^6 cells/ml and then infected with the recombinant virus containing GR cDNA at a multiplicity of infection of 2. Those infected Sf21 cells were incubated for 48 hours and then collected by centrifugation at 1000×g for 10 minutes at 4° C. The resulting cell pellets were resuspended in lysis buffer (50 mM Potassium Phosphate buffer, pH 7.0, 10 mM Monothioglycerol, 5 mM DTT, 20 mM Sodium Molybdate, 1 mM PMSF, 1 μg/mL aprotinin, and 10 μg/mL leupeptin) and incubated for 15 minutes on ice. Those resuspended cell pellets were homogenized using a Dounce homogenizer and a B pestle. A volume of 2 M KCl was added to the homogenized cell pellets to a final concentration of 0.4 M. The resulting GR lysates were centrifuged at 100,000×g for 60 min at 4° C. and stored for use in binding assays.
Binding assay samples were prepared in separate mini-tubes in a 96-well format at 4° C. Each binding assay sample was prepared in a volume of 250 μL of Assay Buffer (10% glycerol, 25 mM sodium phosphate, 10 mM potassium fluoride, 10 mM sodium molybdate, 0.25 mM CHAPS, 2 mM DTT and 1 mM EDTA, (adjusted to pH 7.5)) containing 50 μg of GR lysate; 2-4 nM of [^3H]dexamethasone at 84 Ci/mmol; and either a reference compound or a test compound. […] Each reference compound and test compound was assayed at varying concentrations, ranging from 0 to 10^−5 M. Each concentration of each reference compound and each test compound was assayed in triplicate. The assay samples were incubated for 16 hours at 4° C.
The assay samples were then centrifuged and the supernatants were discarded. The resulting pellets were washed twice with assay buffer lacking DTT. Radioactivity in counts per minute (CPM) of each washed pellet was determined by liquid scintillation counter (MicroBeta™, Wallach).
Specific binding for a particular sample was calculated using the equation: (Sample CPM)−(Average Non-specific CPM)
Average Non-specific CPM was defined as the amount of radioactivity from samples containing an excess (i.e. 1000 nM) of unlabeled dexamethasone. […] Ki values were determined using the Cheng-Prusoff equation using a previously determined Kd value for dexamethasone: Ki=IC50/(1+[L]/Kd)
[L]=concentration of labeled dexamethasone
Kd=dissociation constant of labeled dexamethasone

Compared with `COc1c(O)ccc2c1-c1ccc3c(c1/C(=C/c1oc(C)cc1C(=O)N(C)C)O2)C(C)=CC(C)(C)N3` [Compound 146, (Z)-5-(2′-(3′-dimethylaminocarbonyl-5H-methylfuranylmethylidene))-1,2-dihydro-9-hydroxy-10-methoxy-2,2,4-trimethyl-5H-chromeno[3,4-f]quinoline], `COc1c(O)ccc2c1-c1ccc3c(c1/C(=C/c1sccc1C(=O)N1CCC(=O)CC1)O2)C(C)=CC(C)(C)N3` [Compound 252, (Z)-5-(2′-(3′-(4″-Oxo-piperidinecarbonyl)thienylmethylidene))1,2-dihydro-9-hydroxy-10-methoxy-2,2,4-trimethyl-5H-chromeno[3,4-f]quinoline] is lower in Ki: greater than 3 nM for the first, 1 to 2 nM for the second.

same assay, conditions: competition with 2-4 nM [3H]dexamethasone, 16 hours at 4° C., Cheng-Prusoff; read-out: Ki

`COCCN(CCOC)C(=O)c1ccsc1/C=C1\Oc2ccc(O)c(OC)c2-c2ccc3c(c21)C(C)=CC(C)(C)N3` [Compound 138, (Z)-5-(2′-(3′-(di(methoxyethyl)aminocarbonyl)thienylmethylidene))-1,2-dihydro-9-hydroxy-10-methoxy-2,2,4-trimethyl-5H-chromeno[3,4-f]quinoline] and `CCNC(=O)c1ccsc1/C=C1\Oc2ccc(O)c(OC)c2-c2ccc3c(c21)C(C)=CC(C)(C)N3` [Compound 249, (Z)-5-(2′-(3′-Ethylcarbamoylthienylmethylidene))1,2-dihydro-9-hydroxy-10-methoxy-2,2,4-trimethyl-5H-chromeno[3,4-f]quinoline] fall in the same range of Ki: 1 to 2 nM for the first, 1 to 2 nM for the second.

First: COc1c(O)ccc2c1-c1ccc3c(c1/C(=C/c1ccc(C(=O)N4CCCC4)s1)O2)C(C)=CC(C)(C)N3 [Compound 143, (Z)-5-(2′-(5′-(pyrrolidinocarbonyl)thienylmethylidene))-1,2-dihydro-9-hydroxy-10-methoxy-2,2,4-trimethyl-5H-chromeno[3,4-f]quinoline]
Second: COc1c(O)ccc2c1-c1ccc3c(c1/C(=C/c1cccc(C)c1C(=O)N1CCCC1)O2)C(C)=CC(C)(C)N3 [Compound 154, (Z)-5-(3′-Methyl-2′-(pyrrolidinecarbonyl)benzylidene)1,2-dihydro-9-hydroxy-10-methoxy-2,2,4-trimethyl-5H-chromeno[3,4-f]quinoline]
The Ki of the first is lower: 1 to 2 nM for the first, greater than 3 nM for the second.

First: COc1c(O)ccc2c1-c1ccc3c(c1/C(=C/c1oc(C)cc1C(=O)N1CCCCC1)O2)C(C)=CC(C)(C)N3 [Compound 151, (Z)-5-(2′-(5′-Methyl-3′-(piperidinecarbonyl)furanylmethylidene))1,2-dihydro-9-hydroxy-10-methoxy-2,2,4-trimethyl-5H-chromeno[3,4-f]quinoline]
Second: COc1c(O)ccc2c1-c1ccc3c(c1/C(=C/c1sccc1CO)O2)C(C)=CC(C)(C)N3 [Compound 157, (Z)-5-(2′-(3′-Hydroxymethylthienylmethylidene))1,2-dihydro-9-hydroxy-10-methoxy-2,2,4-trimethyl-5H-chromeno[3,4-f]quinoline]
The Ki of the first is higher: 1 to 2 nM for the first, less than 1 nM for the second. The second binds more tightly here.

`COc1c(O)ccc2c1-c1ccc3c(c1/C(=C/c1ccccc1CO)O2)C(C)=CC(C)(C)N3` [Compound 159, (Z)-5-(2′-Hydroxymethylbenzylidene)1,2-dihydro-9-hydroxy-10-methoxy-2,2,4-trimethyl-5H-chromeno[3,4-f]quinoline] and `COCc1ccsc1/C=C1\Oc2ccc(O)c(OC)c2-c2ccc3c(c21)C(C)=CC(C)(C)N3` [Compound 193, (Z)-5-(2′-(3′-Methoxymethylthienylmethylidene))1,2-dihydro-9-hydroxy-10-methoxy-2,2,4-trimethyl-5H-chromeno[3,4-f]quinoline] fall in the same range of Ki: 1 to 2 nM for the first, 1 to 2 nM for the second.

`COc1c(O)ccc2c1-c1ccc3c(c1/C(=C/c1sccc1CN(C)C)O2)C(C)=CC(C)(C)N3` [Compound 166, (Z)-5-(2′-(3′-(Dimethylaminomethyl)thienylmethylidene))1,2-dihydro-9-hydroxy-10-methoxy-2,2,4-trimethyl-5H-chromeno[3,4-f]quinoline] and `COc1c(O)ccc2c1-c1ccc3c(c1/C(=C/c1sccc1CNC1CC1)O2)C(C)=CC(C)(C)N3` [Compound 222, (Z)-5-(2′-(3′-(Cyclopropylaminomethyl)thienylmethylidene))1,2-dihydro-9-hydroxy-10-methoxy-2,2,4-trimethyl-5H-chromeno[3,4-f]quinoline] fall in the same range of Ki: 2 to 3 nM for the first, 2 to 3 nM for the second.

`C=CCO/N=C(\C)c1ccsc1/C=C1\Oc2ccc(O)c(OC)c2-c2ccc3c(c21)C(C)=CC(C)(C)N3` [Compound 178, (Z)-5-(2′-(3′-((E)-1″-Allyloxyiminoethyl)thienylmethylidene))1,2-dihydro-9-hydroxy-10-methoxy-2,2,4-trimethyl-5H-chromeno[3,4-f]quinoline] and `C=CCO/N=C(/C)c1ccsc1/C=C1\Oc2ccc(O)c(OC)c2-c2ccc3c(c21)C(C)=CC(C)(C)N3` [Compound 179, (Z)-5-(2′-(3′-((Z)-1″-Allyloxyiminoethyl)thienylmethylidene))1,2-dihydro-9-hydroxy-10-methoxy-2,2,4-trimethyl-5H-chromeno[3,4-f]quinoline] fall in the same range of Ki: 1 to 2 nM for the first, 1 to 2 nM for the second.

`COc1c(O)ccc2c1-c1ccc3c(c1/C(=C/c1sccc1C(=O)c1ccsc1)O2)C(C)=CC(C)(C)N3` [Compound 215, (Z)-5-(2′-(3′-(Thien-3″-ylcarbonyl)thienylmethylidene))1,2-dihydro-9-hydroxy-10-methoxy-2,2,4-trimethyl-5H-chromeno[3,4-f]quinoline] and `CC#CCOCc1ccsc1/C=C1\Oc2ccc(O)c(OC)c2-c2ccc3c(c21)C(C)=CC(C)(C)N3` [Compound 237, (Z)-5-(2′-(3′-(But-2″-ynloxymethyl)thienylmethylidene))1,2-dihydro-9-hydroxy-10-methoxy-2,2,4-trimethyl-5H-chromeno[3,4-f]quinoline] fall in the same range of Ki: 1 to 2 nM for the first, 1 to 2 nM for the second.
